Laboratory results published in US20040044055A1, “N-alkoxlyalkyl-substituted benzimidazoles and the use thereof as an agent against parastic protozoans” (priority 2000, published 2004).

Tests used:
Format in all cases: in vivo
[1] = tested on: Eimeria acervulina; test: Cage experiment on coccidiosis/chicks; details: chicks; for Efficacy against Eimeria acervulina: 1st figure of cell
Experimental: (§1) 8- to 12- day-old male chicks (e.g. LSL Brinkschulte/Senden) which have been reared coccidia-free receive the compounds according to the invention (test substances) in the concentration indicated in ppm with the feed from 3 days before (day −3) infection (=a.i.) until 8 (9) days after infection (=p.i.). 3 animals are kept in each cage. One or more groups of this type are employed per dose. Infection is carried out by means of a stomach tube directly into the crop with approximately 100,000 sporulated oocysts of Eimeria acervulina and with approximately 30,000 oocysts each of E. maxima and 40,000 sporulated oocysts of E. tenella. These are highly virulent strains. The exact infection dose is adjusted so that, if possible, one of three experimentally infected untreated chicks dies due to the infection. For assessment of the efficacy, the following criteria are taken into account: weight increase from the start of the experiment to the end of the experiment, death rate due to infection, macroscopic assessment of the faeces with respect to diarrhoea and excretion of blood on days 5 and 7 p.i. (assessment 0 to 6), macroscopic assessment of the intestinal mucosa, in particular of the appendices (assessment 0 to 6) and the oocyst excretion as well as the proportion (in %) of the oocysts sporulating in the course of 24 hours. The number of oocysts in the faeces was determined with the aid of a McMaster counting chamber (see Engelbrecht and coworkers “Parasitologische Arbeitsmethoden in Medizin and Veterinärmedizin” [Parasitological Working Methods in Medicine and Veterinary Medicine], Akademie-Verlag, Berlin (1965)). The individual findings are related to the untreated non-infected control groups and a total score is calculated (cf. A. Haberkorn (1986), pp. 263 to 270 in Research in Avian Coccidiosis ed L. R. McDougald, L. P. Joyner, P. L. Long, Proceedings of the Georgia Coccidiosis Conference, Nov. 18-20, 1985, Athens/Ga. USA).
(§2) In the column “ppm”, the concentration of the active compound employed in the feed is indicated in ppm.
(§3) In the column “mortality”, the percentage of the dead animals is indicated under % and the number of dead animals/animals employed in the experiment is indicated under n.
(§4) In the column “weight % of not inf. control”, the ratio of the weight of the treated animals to the weight of the non-infected control group is indicated.
(§5) In the columns “dropping scores”, “lesion score” and “oocyst control”, individual details of the action are given.
(§6) In the column “% efficacy”, the total score is assessed; 0% means no action, 100% means full action.

[2] = tested on: Eimeria maxima; test: Cage experiment on coccidiosis/chicks; details: chicks; for Efficacy against Eimeria maxima: 2nd figure of cell
Experimental: as §1, §2, §3, §4, §5, §6

[3] = tested on: Eimeria tenella; test: Cage experiment on coccidiosis/chicks; details: chicks; for Efficacy against Eimeria tenella: 3rd figure of cell
Experimental: as §1, §2, §3, §4, §5, §6

[4] = tested on: Eimeria acervulina, Eimeria maxima and Eimeria tenella; test: Cage experiment on coccidiosis/chicks, mixed experimental infection; details: chicks; for dropping scores / lesion score: assessment 0 to 6; for mortality n: dead animals/animals employed; for % efficay tot.: total score
Experimental: as §1, §2, §3, §4, §5, §6

CCOCn1c(C(F)(F)F)nc2cc(OC(F)(F)F)c(C(F)(F)F)cc21 [Ex. 1]
Efficacy against Eimeria acervulina ([1]; 1 ppm in feed): 0 | Efficacy against Eimeria acervulina ([1]; 2.5 ppm in feed): 2 | Efficacy against Eimeria acervulina ([1]; 5 ppm in feed): 2 | Efficacy against Eimeria acervulina ([1]; 7.5 ppm in feed): 2 | Efficacy against Eimeria acervulina ([1]; 10 ppm in feed): 2 | Efficacy against Eimeria maxima ([2]; 1 ppm in feed): 1 | Efficacy against Eimeria maxima ([2]; 2.5 ppm in feed): 2 | Efficacy against Eimeria maxima ([2]; 5 ppm in feed): 2 | Efficacy against Eimeria maxima ([2]; 7.5 ppm in feed): 2 | Efficacy against Eimeria maxima ([2]; 10 ppm in feed): 2 | Efficacy against Eimeria tenella ([3]; 1 ppm in feed): 1 | Efficacy against Eimeria tenella ([3]; 2.5 ppm in feed): 2 | Efficacy against Eimeria tenella ([3]; 5 ppm in feed): 2 | Efficacy against Eimeria tenella ([3]; 7.5 ppm in feed): 2 | Efficacy against Eimeria tenella ([3]; 10 ppm in feed): 1

CC(C)COCn1c(C(F)(F)F)nc2cc(OC(F)(F)F)c(C(F)(F)F)cc21 [Ex. 2]
Efficacy against Eimeria acervulina ([1]; 1 ppm in feed): 1 | Efficacy against Eimeria acervulina ([1]; 2.5 ppm in feed): 1 | Efficacy against Eimeria acervulina ([1]; 5 ppm in feed): 0 | Efficacy against Eimeria acervulina ([1]; 7.5 ppm in feed): 1 | Efficacy against Eimeria acervulina ([1]; 10 ppm in feed): 1 | Efficacy against Eimeria acervulina ([1]; 25 ppm in feed): 2 | Efficacy against Eimeria acervulina ([1]; 50 ppm in feed): 2 | oocyst in % of inf. control ac. ([1]; Ex. 2 2.5 ppm in feed): >100% | oocyst in % of inf. control ac. ([1]; Ex. 2 5 ppm in feed): 54% | oocyst in % of inf. control ac. ([1]; Ex. 2 7.5 ppm in feed): 56% | oocyst in % of inf. control ac. ([1]; Ex. 2 10 ppm in feed): 93% | Efficacy against Eimeria maxima ([2]; 1 ppm in feed): 1 | Efficacy against Eimeria maxima ([2]; 2.5 ppm in feed): 1 | Efficacy against Eimeria maxima ([2]; 5 ppm in feed): 1 | Efficacy against Eimeria maxima ([2]; 7.5 ppm in feed): 1 | Efficacy against Eimeria maxima ([2]; 10 ppm in feed): 2 | Efficacy against Eimeria maxima ([2]; 25 ppm in feed): 2 | Efficacy against Eimeria maxima ([2]; 50 ppm in feed): 2 | oocyst in % of inf. control max. ([2]; Ex. 2 2.5 ppm in feed): >100% | oocyst in % of inf. control max. ([2]; Ex. 2 5 ppm in feed): 0% | oocyst in % of inf. control max. ([2]; Ex. 2 7.5 ppm in feed): 0% | oocyst in % of inf. control max. ([2]; Ex. 2 10 ppm in feed): >100% | Efficacy against Eimeria tenella ([3]; 1 ppm in feed): 1 | Efficacy against Eimeria tenella ([3]; 2.5 ppm in feed): 1 | Efficacy against Eimeria tenella ([3]; 5 ppm in feed): 0 | Efficacy against Eimeria tenella ([3]; 7.5 ppm in feed): 1 | Efficacy against Eimeria tenella ([3]; 10 ppm in feed): 1 | Efficacy against Eimeria tenella ([3]; 25 ppm in feed): 2 | Efficacy against Eimeria tenella ([3]; 50 ppm in feed): 2 | oocyst in % of inf. control ten. ([3]; Ex. 2 2.5 ppm in feed): >100% | oocyst in % of inf. control ten. ([3]; Ex. 2 5 ppm in feed): 98% | oocyst in % of inf. control ten. ([3]; Ex. 2 7.5 ppm in feed): 23% | oocyst in % of inf. control ten. ([3]; Ex. 2 10 ppm in feed): 65% | mortality % ([4]; Ex. 2 2.5 ppm in feed): 33% | oocyst in % of inf. control tot. ([4]; Ex. 2 2.5 ppm in feed): >100% | weight % of not inf. control ([4]; Ex. 2 2.5 ppm in feed): 33% | dropping scores ([4]; Ex. 2 2.5 ppm in feed): 6 | lesion score ([4]; Ex. 2 2.5 ppm in feed): 6 | mortality n ([4]; Ex. 2 2.5 ppm in feed): 1/3 | % efficay tot. ([4]; Ex. 2 2.5 ppm in feed): 2% | mortality % ([4]; Ex. 2 5 ppm in feed): 33% | oocyst in % of inf. control tot. ([4]; Ex. 2 5 ppm in feed): 73% | weight % of not inf. control ([4]; Ex. 2 5 ppm in feed): 65% | dropping scores ([4]; Ex. 2 5 ppm in feed): 6 | lesion score ([4]; Ex. 2 5 ppm in feed): 6 | mortality n ([4]; Ex. 2 5 ppm in feed): 1/3 | % efficay tot. ([4]; Ex. 2 5 ppm in feed): 37% | mortality % ([4]; Ex. 2 7.5 ppm in feed): 33% | oocyst in % of inf. control tot. ([4]; Ex. 2 7.5 ppm in feed): 41% | weight % of not inf. control ([4]; Ex. 2 7.5 ppm in feed): 74% | dropping scores ([4]; Ex. 2 7.5 ppm in feed): 6 | lesion score ([4]; Ex. 2 7.5 ppm in feed): 6 | mortality n ([4]; Ex. 2 7.5 ppm in feed): 1/3 | % efficay tot. ([4]; Ex. 2 7.5 ppm in feed): 36% | mortality % ([4]; Ex. 2 10 ppm in feed): 0% | oocyst in % of inf. control tot. ([4]; Ex. 2 10 ppm in feed): 83% | weight % of not inf. control ([4]; Ex. 2 10 ppm in feed): 69% | dropping scores ([4]; Ex. 2 10 ppm in feed): 6 | lesion score ([4]; Ex. 2 10 ppm in feed): 6 | mortality n ([4]; Ex. 2 10 ppm in feed): 0/3 | % efficay tot. ([4]; Ex. 2 10 ppm in feed): 17%

CCOCn1c(C(F)(F)F)nc2c(C(F)(F)F)cc(OC(F)(F)F)cc21 [Ex. 3]
Efficacy against Eimeria acervulina ([1]; 1 ppm in feed): 0 | Efficacy against Eimeria acervulina ([1]; 2.5 ppm in feed): 2 | Efficacy against Eimeria acervulina ([1]; 5 ppm in feed): 2 | Efficacy against Eimeria acervulina ([1]; 7.5 ppm in feed): 2 | Efficacy against Eimeria acervulina ([1]; 10 ppm in feed): 1 | Efficacy against Eimeria maxima ([2]; 1 ppm in feed): 0 | Efficacy against Eimeria maxima ([2]; 2.5 ppm in feed): 2 | Efficacy against Eimeria maxima ([2]; 5 ppm in feed): 2 | Efficacy against Eimeria maxima ([2]; 7.5 ppm in feed): 2 | Efficacy against Eimeria maxima ([2]; 10 ppm in feed): 1 | Efficacy against Eimeria tenella ([3]; 1 ppm in feed): 0 | Efficacy against Eimeria tenella ([3]; 2.5 ppm in feed): 1 | Efficacy against Eimeria tenella ([3]; 5 ppm in feed): 2 | Efficacy against Eimeria tenella ([3]; 7.5 ppm in feed): 2 | Efficacy against Eimeria tenella ([3]; 10 ppm in feed): 1

CO[C@@H]1[C@@H](OC)[C@H](C)[C@@](O)(CC(=O)O)O[C@H]1[C@H](C)[C@H]1O[C@@]2(CC[C@@](C)([C@H]3CC[C@@](C)([C@@H]4O[C@@H]([C@H]5O[C@](C)(O)[C@H](C)C[C@@H]5C)C[C@@H]4O[C@@H]4C[C@H](OC)[C@@H](OC)[C@H](C)O4)O3)O2)C[C@H](O)[C@H]1C [MAD, maduramicin, reference compound]
oocyst in % of inf. control ac. ([1]; MAD 1 ppm in feed): >100% | oocyst in % of inf. control ac. ([1]; MAD 2 ppm in feed): >100% | oocyst in % of inf. control ac. ([1]; MAD 3 ppm in feed): >100% | oocyst in % of inf. control max. ([2]; MAD 1 ppm in feed): >100% | oocyst in % of inf. control max. ([2]; MAD 2 ppm in feed): >100% | oocyst in % of inf. control max. ([2]; MAD 3 ppm in feed): >100% | oocyst in % of inf. control ten. ([3]; MAD 1 ppm in feed): 85% | oocyst in % of inf. control ten. ([3]; MAD 2 ppm in feed): >100% | oocyst in % of inf. control ten. ([3]; MAD 3 ppm in feed): 75% | mortality % ([4]; MAD 1 ppm in feed): 67% | oocyst in % of inf. control tot. ([4]; MAD 1 ppm in feed): >100% | weight % of not inf. control ([4]; MAD 1 ppm in feed): 17% | dropping scores ([4]; MAD 1 ppm in feed): 6 | lesion score ([4]; MAD 1 ppm in feed): 6 | mortality n ([4]; MAD 1 ppm in feed): 2/3 | % efficay tot. ([4]; MAD 1 ppm in feed): 0% | mortality % ([4]; MAD 2 ppm in feed): 0% | oocyst in % of inf. control tot. ([4]; MAD 2 ppm in feed): >100% | weight % of not inf. control ([4]; MAD 2 ppm in feed): 82% | dropping scores ([4]; MAD 2 ppm in feed): 2 | lesion score ([4]; MAD 2 ppm in feed): 6 | mortality n ([4]; MAD 2 ppm in feed): 0/3 | % efficay tot. ([4]; MAD 2 ppm in feed): 29% | mortality % ([4]; MAD 3 ppm in feed): 0% | oocyst in % of inf. control tot. ([4]; MAD 3 ppm in feed): >100% | weight % of not inf. control ([4]; MAD 3 ppm in feed): 98% | dropping scores ([4]; MAD 3 ppm in feed): 0 | lesion score ([4]; MAD 3 ppm in feed): 1 | mortality n ([4]; MAD 3 ppm in feed): 0/3 | % efficay tot. ([4]; MAD 3 ppm in feed): 44%
